Assays:
Format in all cases: biochemical
[1] = target: T1, PAK1 (Homo sapiens, UniProt Q13153); assay: Z'Lyte fluorescence-based (FRET) kinase assay, PAK1; conditions: ATP at Km apparent; 1 hr room temperature
T1 construct: Purified PAK kinase is incubated with ATP
Method: (§1) A fluorescence-based assay format is used to determine […] values of test compounds in vitro. Purified PAK kinase is incubated with ATP, and a test compound at various concentrations and a substrate peptide containing two fluorophores. In a second step, the reaction mix is incubated with a site-specific protease that cleaves non-phosphorylated but not phosphorylated substrate peptide, disrupting the FRET signal generated by the two fluorophores in the cleaved peptide (Z'Lyte™ Kinase assay platform; Life Technologies).
(§2) Reagents: 50 mM HEPES, pH 7.5; 0.01% BRIJ-35; 10 mM MgCl2; 1 mM EGTA, 2 uM substrate peptide Ser/Thr20 (proprietary Life Technologies Sequence), PAK enzyme [2.42-30.8 ng for PAK1, 0.29-6 ng for PAK2, 1.5-20 ng for PAK3 and 0.1-0.86 ng for PAK4; actual enzyme amounts depend on lot activity of the enzyme preparation]
(§3) Test compounds are dissolved in DMSO at various concentrations; the final DMSO concentration in the assay reaction is 1%.
(§4) ATP concentration at Km apparent is used in the assay [50 ? M ATP for PAK1 assay, 75 ? M ATP for PAK2 assay, 100 μM ATP for PAK3 assay, 5 μM ATP for PAK4 assay] in a total assay volume of 10 μl. […]
(§5) Plates are analyzed in a standard fluorescence plate reader (Tecan or equivalent) using an excitation wavelength of 400 nm and emission wavelengths of 445 nm and 520 nm. Inhibition of kinase reaction is determined by […]

[2] = target: T2, PAK4 (Homo sapiens, UniProt O96013); assay: Z'Lyte fluorescence-based (FRET) kinase assay, PAK4; conditions: ATP at Km apparent (5 μM ATP); 1 hr room temperature
T2 construct: Purified PAK kinase is incubated with ATP
Method: as §1, §2, §3, §4, §5

[3] = target: PAK2 (Homo sapiens, UniProt Q13177); assay: Z'Lyte fluorescence-based (FRET) kinase assay, PAK2; conditions: ATP at Km apparent; 1 hr room temperature
Method: as §1, §2, §3, §4, §5

[4] = target: PAK3 (Homo sapiens, UniProt O75914); assay: Z'Lyte fluorescence-based (FRET) kinase assay, PAK3; conditions: ATP at Km apparent (100 μM ATP); 1 hr room temperature
Method: as §1, §2, §3, §4, §5

Sequence of PAK3 (O75914 whole entry): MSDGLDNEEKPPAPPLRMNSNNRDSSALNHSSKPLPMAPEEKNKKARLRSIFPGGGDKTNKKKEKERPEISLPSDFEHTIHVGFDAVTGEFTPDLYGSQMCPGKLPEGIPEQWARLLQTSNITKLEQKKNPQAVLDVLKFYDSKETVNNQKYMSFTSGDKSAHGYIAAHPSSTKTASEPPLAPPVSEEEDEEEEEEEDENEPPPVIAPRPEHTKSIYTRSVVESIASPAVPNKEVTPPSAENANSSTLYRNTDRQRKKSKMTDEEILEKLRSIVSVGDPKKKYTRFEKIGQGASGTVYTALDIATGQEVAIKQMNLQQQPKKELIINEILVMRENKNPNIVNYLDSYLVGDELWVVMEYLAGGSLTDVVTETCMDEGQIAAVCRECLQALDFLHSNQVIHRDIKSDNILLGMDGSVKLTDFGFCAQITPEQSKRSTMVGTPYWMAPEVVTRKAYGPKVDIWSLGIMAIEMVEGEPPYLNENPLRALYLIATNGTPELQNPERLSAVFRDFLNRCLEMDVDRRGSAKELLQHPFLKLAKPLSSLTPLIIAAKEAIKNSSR
Sequence of PAK2 (Q13177 whole entry): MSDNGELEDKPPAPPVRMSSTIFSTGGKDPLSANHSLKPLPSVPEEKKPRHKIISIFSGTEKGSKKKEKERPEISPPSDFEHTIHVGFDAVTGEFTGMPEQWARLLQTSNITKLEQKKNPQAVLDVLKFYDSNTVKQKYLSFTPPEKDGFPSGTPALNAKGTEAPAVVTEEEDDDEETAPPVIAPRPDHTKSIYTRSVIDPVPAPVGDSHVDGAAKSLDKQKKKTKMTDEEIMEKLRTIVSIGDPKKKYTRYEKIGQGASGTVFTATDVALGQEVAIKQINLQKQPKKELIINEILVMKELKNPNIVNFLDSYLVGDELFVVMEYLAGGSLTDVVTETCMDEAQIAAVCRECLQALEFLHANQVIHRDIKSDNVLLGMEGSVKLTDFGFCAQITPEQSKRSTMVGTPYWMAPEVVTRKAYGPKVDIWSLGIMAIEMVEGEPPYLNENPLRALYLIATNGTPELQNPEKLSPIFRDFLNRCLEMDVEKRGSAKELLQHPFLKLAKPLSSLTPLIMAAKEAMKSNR
T1 sequence (Q13153 whole entry): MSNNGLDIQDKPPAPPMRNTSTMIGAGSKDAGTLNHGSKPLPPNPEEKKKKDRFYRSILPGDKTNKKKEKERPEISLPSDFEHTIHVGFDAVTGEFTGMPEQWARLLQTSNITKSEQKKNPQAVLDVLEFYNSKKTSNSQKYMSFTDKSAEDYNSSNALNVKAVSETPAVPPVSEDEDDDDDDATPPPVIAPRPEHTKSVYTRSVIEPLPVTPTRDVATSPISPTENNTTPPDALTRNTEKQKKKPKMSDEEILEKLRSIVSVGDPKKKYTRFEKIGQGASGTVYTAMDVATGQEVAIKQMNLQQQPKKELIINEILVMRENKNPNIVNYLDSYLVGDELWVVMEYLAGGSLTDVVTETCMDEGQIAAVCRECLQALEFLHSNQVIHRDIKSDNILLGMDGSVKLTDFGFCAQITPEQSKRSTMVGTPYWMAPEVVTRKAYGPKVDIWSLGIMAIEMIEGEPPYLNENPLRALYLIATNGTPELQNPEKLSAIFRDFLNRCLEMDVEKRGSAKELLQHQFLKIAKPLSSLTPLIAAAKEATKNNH
T2 sequence (O96013 whole entry): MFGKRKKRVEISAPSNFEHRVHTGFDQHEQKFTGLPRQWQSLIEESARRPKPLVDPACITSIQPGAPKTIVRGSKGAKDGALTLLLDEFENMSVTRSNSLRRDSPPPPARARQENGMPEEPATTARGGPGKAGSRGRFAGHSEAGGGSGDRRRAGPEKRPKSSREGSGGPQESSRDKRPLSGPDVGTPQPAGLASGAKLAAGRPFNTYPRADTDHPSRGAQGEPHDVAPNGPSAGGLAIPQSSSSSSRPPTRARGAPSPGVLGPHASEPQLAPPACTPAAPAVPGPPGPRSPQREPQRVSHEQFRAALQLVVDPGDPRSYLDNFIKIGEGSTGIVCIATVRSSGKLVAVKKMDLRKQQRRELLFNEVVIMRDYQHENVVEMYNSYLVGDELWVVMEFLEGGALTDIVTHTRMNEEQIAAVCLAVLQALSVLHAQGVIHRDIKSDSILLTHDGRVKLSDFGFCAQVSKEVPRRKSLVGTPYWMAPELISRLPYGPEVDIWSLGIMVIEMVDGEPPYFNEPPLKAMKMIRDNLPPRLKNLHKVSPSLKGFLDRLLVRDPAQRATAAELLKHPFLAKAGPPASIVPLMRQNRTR

| IC50 [1] [nM] | IC50 [2] [nM] | IC50 [3] [nM] | IC50 [4] [nM] | Structure (SMILES) |
| --- | --- | --- | --- | --- |
| < 1000 | < 1000 | < 1000 | < 1000 | CN1CCN(c2ccc(Nc3ncc4ccc(=O)n(Cc5c(O)cccc5F)c4n3)cc2)CC1 [compound 105] |
| < 1000 | < 1000 | < 1000 | < 1000 | CN1CCN(c2ccc(Nc3ncc4ccc(=O)n(Cc5c(O)cccc5Br)c4n3)cc2)CC1 [compound 123] |
